From patent publication US20230115176A1 (Ra Pharmaceuticals, Inc., priority 2019, published 2023)
pIC50, pKd: −log10 of the molar value. ≈ marks a conversion by molar mass, not a printed value.

Tests used:
Human C5 [1] = target: T1, Human C5 (Homo sapiens, UniProt P01031); test: Red blood cell (RBC) hemolysis assay, luminescent (Example 24, Table 29); assay type: cell-based; details: sheep EA cells, […] C5-depleted human serum, 0.5 nM human C5, 1 hour at 37° C., luminescence (Table 29)
T1 construct: purchased Complement Technology
T1 sequence (P01031 19-1676): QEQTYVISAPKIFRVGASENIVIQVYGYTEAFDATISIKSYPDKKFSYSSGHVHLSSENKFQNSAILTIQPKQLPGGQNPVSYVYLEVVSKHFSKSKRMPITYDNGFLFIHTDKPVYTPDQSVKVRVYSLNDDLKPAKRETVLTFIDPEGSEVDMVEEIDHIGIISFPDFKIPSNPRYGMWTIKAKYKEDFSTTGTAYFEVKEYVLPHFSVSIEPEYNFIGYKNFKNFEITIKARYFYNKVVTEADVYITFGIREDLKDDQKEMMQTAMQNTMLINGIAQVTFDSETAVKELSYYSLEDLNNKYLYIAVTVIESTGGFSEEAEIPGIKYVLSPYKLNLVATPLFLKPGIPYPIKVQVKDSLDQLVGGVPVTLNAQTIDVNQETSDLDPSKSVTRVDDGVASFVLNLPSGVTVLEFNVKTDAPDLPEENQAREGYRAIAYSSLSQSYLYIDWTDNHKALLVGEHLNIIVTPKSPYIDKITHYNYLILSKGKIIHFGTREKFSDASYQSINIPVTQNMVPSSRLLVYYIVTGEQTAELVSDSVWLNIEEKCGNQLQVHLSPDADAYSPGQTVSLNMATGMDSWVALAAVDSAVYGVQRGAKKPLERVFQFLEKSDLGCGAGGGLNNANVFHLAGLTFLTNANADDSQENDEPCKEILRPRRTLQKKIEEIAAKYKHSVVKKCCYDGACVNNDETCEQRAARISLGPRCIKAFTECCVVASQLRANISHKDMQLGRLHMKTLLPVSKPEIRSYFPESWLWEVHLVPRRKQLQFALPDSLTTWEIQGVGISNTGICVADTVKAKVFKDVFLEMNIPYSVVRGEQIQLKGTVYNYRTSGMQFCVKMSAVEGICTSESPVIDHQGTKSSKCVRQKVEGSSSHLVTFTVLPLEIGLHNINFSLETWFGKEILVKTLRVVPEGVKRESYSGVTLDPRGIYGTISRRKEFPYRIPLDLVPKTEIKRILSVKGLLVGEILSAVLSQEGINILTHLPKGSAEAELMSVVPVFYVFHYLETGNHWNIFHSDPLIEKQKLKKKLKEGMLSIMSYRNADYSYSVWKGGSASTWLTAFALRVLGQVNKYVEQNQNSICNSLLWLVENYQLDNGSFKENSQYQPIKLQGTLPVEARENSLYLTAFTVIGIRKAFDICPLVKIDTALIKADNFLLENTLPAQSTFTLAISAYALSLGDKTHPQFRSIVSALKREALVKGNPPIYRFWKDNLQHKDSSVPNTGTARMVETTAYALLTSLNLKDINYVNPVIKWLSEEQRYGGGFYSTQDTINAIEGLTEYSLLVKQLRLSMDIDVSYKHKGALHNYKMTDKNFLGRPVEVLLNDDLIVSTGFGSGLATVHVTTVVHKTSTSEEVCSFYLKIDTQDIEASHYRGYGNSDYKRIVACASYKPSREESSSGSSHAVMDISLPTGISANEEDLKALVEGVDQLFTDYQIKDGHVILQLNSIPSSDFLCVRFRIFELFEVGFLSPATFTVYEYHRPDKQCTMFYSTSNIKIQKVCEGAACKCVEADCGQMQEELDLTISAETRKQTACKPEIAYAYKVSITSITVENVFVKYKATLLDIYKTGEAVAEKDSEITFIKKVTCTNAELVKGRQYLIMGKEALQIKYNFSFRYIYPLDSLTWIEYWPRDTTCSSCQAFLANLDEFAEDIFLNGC
From the text: (§1) Numbers in parenthesis following the compound number indicate alternate enantiomers (as distinguished by retention time during chromatographical separation).

[2] = target: T2, human C5 complement protein (Homo sapiens, UniProt P01031); test: Surface plasmon resonance (SPR), immobilized human C5, 37° C. (Example 23, Table 28); assay type: binding; details: lowest value obtained where a range of concentrations was analyzed (Table 28)
T2 sequence (P01031 19-1676): as above

purified human C5 = purified human C5 (Homo sapiens, UniProt P01031); test: Red blood cell hemolysis assay, optical, absorbance 412 nm (Example 3, Table 6); assay type: cell-based; details: antibody-sensitized sheep erythrocytes, 1.5% human C5 depleted sera, 0.5 nM human C5; average where replicates
purified human C5, sequence (P01031 19-1676): as above
Method: Experiments were carried out using a red blood cell (RBC) hemolysis assay to assess compound inhibition of RBC lysis. […] The assay was carried out using 1.5% human C5 depleted sera and 0.5 nM purified human C5.
GVB++ buffer (Complement Technology, Tyler, Tex.) was heated at 37° C. for a minimum of 20 minutes. The human C5 depleted sera and purified human C5 were rapidly thawed at 37° C. and then stored on ice or wet ice, respectively. The compound stock (10 mM, DMSO) was serially diluted in 100% DMSO to obtain ten 6-fold dilutions before addition of GVB++. Sera dilution was prepared by adding 5 mL of GVB++ to a 15 mL conical tube, removing 600 μL of the GVB++ and adding 600 μL of the 100% sera. The tube was mixed by inverting three times. A volume of 25 μL of the diluted sera was added to each well so that the final concentration of sera in the well was 1.5%. C5 dilution was prepared by adding 5 mL of GVB++ to a 15 mL conical tube, removing 4 μL of the GVB++ and adding 4 μL of the C5 stock. The tube was mixed by inverting three times. A volume of 25 μL was added to each well so that the final amount of C5 was 0.5 nM in each well. The antibody-sensitized sheep erythrocytes (EAs) were centrifuged at 1,000× gravity at 22° C. for 3 minutes. The supernatant was pipetted off without disrupting the pellet. The pellet was then resuspended in GVB++ with the same volume removed. Resuspended EAs were mixed by gently inverting the tube.
Five controls were run on each plate: (1) EAs only=100 μL EAs+50 μL GVB++ with 4% DMSO+50 μL GVB++; (2) EA+Sera=100 μL EAs+50 μL GVB++ with 4% DMSO+25 μL Sera dilution+25 μL GVB++; (3) EA+C5=100 μL EAs+50 μL GVB++ with 4% DMSO+25 μL C5 dilution+25 μL GVB++; (4) EA+Sera+C5=100 μL EAs+50 μL GVB++ with 4% DMSO+25 μL Sera dilution+25 μL C5; (5) GVB++ Only=200 μL GVB++. Other wells included: GVB++ with 4% DMSO=20 μL DMSO+480 μL GVB++. All samples were analyzed in duplicate. The compound dose response curve was generated using samples prepared with 100 μL EA+50 μL compound dilution+25 μL C5 dilution+25 μL sera dilution.
Test plates were prepared by adding 100 μL of EAs, 50 μL of compound dilution, 25 μL of sera dilution, and 25 μL of C5 dilution to individual wells of a 96-well tissue culture-treated clear microtitre plate (USA Scientific, Ocala, Fla.) and resuspending by pipetting up and down three times. The samples were incubated at 37° C. for one hour. At the completion of the incubation, the plates were centrifuged at 1,000× gravity for 3 minutes. 100 μl of supernatant were transferred to a new plate and the absorbance was read at 412 nm. Data was fit with a log-logit formula producing a dose-response curve and IC50.
“IC50” refers to the half maximal inhibitory concentration, where the value is the concentration of the inhibitor needed to reduce red blood cell hemolysis by half. Where replicate analysis was conducted, average IC50 values are provided along with standard deviation (SD) values.

Human C5 [3] = target: T1, Human C5; test: Surface plasmon resonance (SPR), compounds on immobilized human C5 (Example 2, Table 5); assay type: binding; details: lowest value where a range of compound concentrations were analyzed
[4] = tested on: CD59-deficient RBCs from patients with paroxysmal nocturnal hemoglobinuria (PNH); test: Hemolysis inhibition with PNH patient cells, flow cytometry for CD59 and plate assay (Example 6); assay type: cell-based, human; details: FIG. 2
Method: Flow cytometry studies were carried out to assess the ability of compounds to inhibit hemolysis of CD59-deficient RBCs from patients with paroxysmal nocturnal hemoglobinuria (PNH). […] To induce hemolysis, donor-matched serum was acidified to pH 6.4 with HCl. Compounds, serum, and RBCs, 2.5% volume per volume (v/v), were incubated for 18 hours at 37° C. After incubation, cells were washed and re-suspended in 1 ml fluorescence-associated cell sorting (FACS) buffer (0.1% BSA IgG-free in PBS, 0.1% Sodium Azide). Then, anti-CD59 antibody conjugated with phycoerythrin was added at a final concentration of 0.25 μg/ml to 100 μl of cell suspension and incubated at 4° C. for 30 minutes. Cells were then washed twice with cold FACS buffer, re-suspended in FACS buffer and analyzed with a BD Accuri C6 Flow Cytometer (BD Biosciences, San Jose, Calif.) for CD59 levels. The level of CD59-positive cells was monitored as a measure of complement-mediated hemolysis of PNH type III cells. A negative control using non-acidified serum was used to establish a baseline of CD59 expression under non-hemolytic conditions (FIG. 1A).

[5] = tested on: P-glycoprotein (P-gp, MDR1); test: Permeability assay, bidirectional transport, efflux ratio (Example 30, Table 34); assay type: in vitro ADME, canine; details: dog, MDCK-MDR1, pH 7.4; read-out: MDCK-MDR efflux ratio
Method: Permeability assays were carried out to provide a preliminary indication of suitability for oral dosing and compound permeability across the blood brain barrier. Unidirectional and bidirectional compound transport across Madin Darby canine kidney (MDCK) cell monolayers was assessed. For unidirectional transport assessment, transport across MDCK wild type (MDCK-WT) cell monolayers was assessed. For bidirectional transport, transport across MDCK-MDR1 cell monolayers was assessed. MDCK-MDR1 cells express the MDR1 gene encoding the P-glycoprotein (P-gp) efflux protein.
MDCK-WT and MDCK-MDR1 cells were plated onto permeable polycarbonate supports in 12-well Costar transwell plates and allowed to grow and differentiate for 3 days. After 3 days in culture, the culture medium (DMEM supplemented with 10% FBS) was removed from both sides of the transwell inserts and cells were rinsed with warm HBSS. After the rinse step, the chambers were filled with warm transport buffer (HBSS containing 10 mM HEPES, 0.25% BSA, pH 7.4) and the plates were pre-incubated at 37° C. for 30 minutes prior to TEER (Trans Epithelial Electric Resistance) measurements.
The buffer in the donor chamber (apical side for A-to-B assay, basolateral side for B-to-A assay) was removed and replaced with the working solution (3 μM test compound and 10 μM for control compounds in transport buffer). The plates were then placed at 37° C. under light agitation. At designated time points (30, 60 and 90 min), an aliquot of transport buffer from the receiver chamber was removed and replenished with fresh transport buffer. Samples were quenched with ice-cold ACN containing internal standard and then centrifuged to pellet protein. Resulting supernatants were further diluted with 50/50 ACN/H2O (Atenolol diluted in just water) and submitted for LC-MS/MS analysis. Apparent permeability (Pap) values were calculated from duplicate determinations. Atenolol and propranolol were tested as low and […] permeability references.
Efflux ratios were calculated for bidirectional transport across MDCK-MDR1 cell monolayers as an indication of compound efflux by P-gp. The efflux ratio is calculated using the ratio of mean Papp values for B to A transport to mean Papp values for A to B transport [Papp(BA)/Papp(AB)].

[6] = Permeability assay, unidirectional transport, Papp (Example 30, Table 34); assay type: in vitro ADME, canine; details: dog, pH 7.4; MDCK-WT cell monolayers, A-to-B, 3 μM test compound, 37° C., duplicate determinations
Outline: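 MDCK-WT monolayers, grown 3 days on transwells, were given 3 μM test compound in HBSS with 10 mM HEPES and 0.25% BSA, pH 7.4, at 37° C with light agitation. Receiver samples at 30, 60 and 90 min were analysed by LC-MS/MS, and Papp was calculated from duplicate determinations.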

[7] = target: T2, human C5 complement protein; test: Surface plasmon resonance (SPR), immobilized human C5, 37° C. (Example 18, Table 24); assay type: binding; details: lowest value obtained where a range of concentrations was analyzed
[8] = Kinetic solubility in PBS pH 7.4, HPLC-UV (Example 21, Table 27); assay type: physicochemical; details: phosphate buffered saline, aqueous buffer, kinetic from dmso stock, 0.5 M PBS, shaken minimum 24 h at approximately 25° C., HPLC-UV 270 nm
Outline: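 10 mM DMSO stock diluted into 0.05 M PBS pH 7.4 (5% DMSO final), in triplicate, shaken ≥24 h at ~25 °C, then filtered by centrifugation. Supernatant concentration by HPLC-UV at 270 nm against external DMSO standards (15.6–500.0 μM).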

[9] = target: T2, human C5 complement protein; test: Surface plasmon resonance (SPR), immobilized human C5, 37° C. (Example 27, Table 31); assay type: binding; details: lowest value obtained where a range of concentrations was analyzed (Table 31)
Human C5 [10] = target: T1, Human C5; test: Red blood cell (RBC) hemolysis assay, luminescent (Example 28, Table 32); assay type: cell-based; details: sheep EA cells, 1.5% C5-depleted human serum, 0.5 nM human C5, 1 hour at 37° C., luminescence (Table 32)
Human C5 [11] = target: T1, Human C5; test: Hemolysis assay, luminescent, classical complement pathway (Example 4, Table 7); assay type: cell-based; details: sheep EA cells, 1.5% C5-depleted human serum, 0.5 nM human C5, luminescence readout
From the text: as §1

[12] = Drug-Metabolism-and-Pharmacokinetics (DMPK), single IV and oral dose in rats (Example 5); details: rat, in vivo; fasted male Sprague Dawley rats, 1 mg/kg IV and 10 mg/kg PO, 5% DMSO: 20% HP-Beta-CD
Method: Single intravenous (IV) and oral dose (P0, per oral) administration of C5 inhibitors were carried out in rats. Rats were then analyzed for Drug-Metabolism-and-Pharmacokinetic (DMPK) properties, used to determine the pharmacokinetics and oral bioavailability of the C5 inhibitors.
SM0011 was formulated as a clear solution at 1 mg/mL in 5% DMSO: 20% HP-Beta-CD. Fasted male Sprague Dawley rats were dosed with the solution at 1 MPK (mg/kg) IV and 10 MPK (mg/kg) PO. Analysis of the DMPK properties of the compound were used to determine the bioavailability.

Row | SMILES | efflux ratio at 3 μM [5] | Papp A→B at 3 μM [6] | pKd [7] | solubility kinetic [8] | further results
1 | CCCCCOc1cc(N2CC3(COC3)CN(Cc3ccccc3OC)C2=O)ccc1OC [SC0066] |  |  |  |  | pIC50 (Human C5 [1]): 7.40; pKd [2]: 7.36
2 | COc1ccc(NC(=O)NC(CO)c2ccccc2O)cc1OCCCC(C)C (stereo not drawn) [SM0001, 1-(2-hydroxy-1-(2-hydroxyphenyl)ethyl)-3-(4-methoxy-3-((4-methylpentyl)oxy)phenyl)urea] |  |  |  |  | pIC50 (purified human C5): 7.68; pKd (Human C5 [3]): 7.31; inhibition of PNH patient hemolysis with increasing concentrations [4]: dose-dependent manner
3 | CCCCCOc1cc(N2CCCN(Cc3ccnc4c3c(Cl)cn4CC(=O)N(C)C)C2=O)ncc1OC [CU0558] | 9 | 25.2 ×10⁻⁶ cm/s | 9.82 | 271 µM (≈ 147 µg/mL) | 
4 | CCCCCOc1cc(N2CCCN(Cc3ccnc4c3c(Cl)cn4CC(=O)N3CCC3)C2=O)ccc1OC [CU0560] | 23 | 23 ×10⁻⁶ cm/s | 10.27 | 31 µM (≈ 17.2 µg/mL) | 
5 | CCCCCOc1cc(N2CC3(CC3)CN(Cc3ccccc3OC)C2=O)ccc1OC [SC0064] |  |  |  |  | pIC50 (Human C5 [1]): 7.63; pKd [2]: 7.95
6 | CCCCCOc1cc(N2CC[C@H](C)N(Cc3ccnc4c3c(Cl)cn4CC(=O)N3CC(O)C3)C2=O)ccc1OC [SC0120] | 98 | 6.6 ×10⁻⁶ cm/s |  | 96 µM (≈ 56.1 µg/mL) | pKd [9]: 11.00; pIC50 (Human C5 [10]): 8.82
7 | CCCCCOc1cc(N2CC[C@H](C)N(Cc3cccc4c3c(Cl)cn4CC(=O)N(C)C)C2=O)ccc1OC [SC0112] | 12 | 16.4 ×10⁻⁶ cm/s |  | 13 µM (≈ 7.22 µg/mL) | pKd [9]: 9.55; pIC50 (Human C5 [10]): 8.89
8 | COc1ccc(NC(=O)N[C@@H](CO)c2ccccc2)cc1OCCCC(C)C [SM0011] |  |  |  |  | pIC50 (purified human C5): 6.57; pIC50 (Human C5 [11]): 7.22; bioavailability [12]: ~30%; pKd (Human C5 [3]): 6.80
9 | CCCCCOc1cc(N2CCCN(Cc3ccnc4c3c(Cl)cn4CC(=O)N(C)CC#N)C2=O)ccc1OC [CU0529] | 75 | 17.1 ×10⁻⁶ cm/s | 9.49 | 50 µM (≈ 28.4 µg/mL) | 
